Measured values taken from ChEMBL document CHEMBL3885861, “Open TG-GATES”.

Species on record: Rattus norvegicus
Assay: Open TG-GATES - Regimen: Daily Repeat
Format: toxicity, organism-based, Sprague-Dawley
Set-up: regimen Daily Repeat, gender Male, age 6 weeks
Conditions: in vivo, po, 1000 mg/kg, […], route gavage, dose level Middle; for KIDNEY_L / KIDNEY_R / KIDNEY_TOTAL: tissue Kidney; for LIVER: tissue Liver; for A/G / ALP / ALT / AST / BUN / CRE / Ca / Cl / DBIL / GLC / IP / K / LDH / Na / PL / RALB / TBIL / TC / TG / TP / gamma-GTP: tissue Plasma

`CC(N)=O` [ACETAMIDE] showed a Neu (tissue Blood, time 28 day) of 14.4%, a Plat (tissue Blood, time 28 day) of 93.5 x10_4/uL and an RBC (tissue Blood, time 28 day) of 767.8 x10_4/ul. For the same compound, the Ret (tissue Blood, time 28 day) was 2.8%, the WBC (tissue Blood, time 28 day) was 140.9 x10_2/uL and the KIDNEY_L (time 7 day) was 1.2 g. For the same compound, the KIDNEY_R (time 7 day) was 1.2 g, the KIDNEY_TOTAL (time 7 day) was 2.4 g and the KIDNEY_L (time 14 day) was 1.3 g. For the same compound, the KIDNEY_R (time 14 day) was 1.4 g, the KIDNEY_TOTAL (time 14 day) was 2.7 g and the KIDNEY_L (time 28 day) was 1.6 g. It also gave a KIDNEY_R (time 28 day) of 1.6 g, a KIDNEY_TOTAL (time 28 day) of 3.1 g and an LIVER (time 7 day) of 11.7 g. For the same compound, the LIVER (time 14 day) was 14 g, the LIVER (time 28 day) was 15.5 g and the A/G (time 7 day) was 1. For the same compound, the ALP (time 7 day) was 2048.4 IU/L, the ALT (time 7 day) was 47.4 IU/L and the AST (time 7 day) was 87.2 IU/L. It also gave a BUN (time 7 day) of 16 mg/dL, a CRE (time 7 day) of 0.1 mg/dL and a Ca (time 7 day) of 10.7 mg/dL. For the same compound, the Cl (time 7 day) was 104.7 meq/L, the DBIL (time 7 day) was 0 mg/dL and the GLC (time 7 day) was 186.2 mg/dL. It also gave an IP (time 7 day) of 6.4 mg/dL, a K (time 7 day) of 4.2 meq/L and an LDH (time 7 day) of 199 IU/L. For the same compound, the Na (time 7 day) was 142.7 meq/L, the PL (time 7 day) was 168 mg/dL and the RALB (time 7 day) was 2.8 g/dL. The TBIL (time 7 day) was 0 mg/dL, the TC (time 7 day) was 83.6 mg/dL and the TG (time 7 day) was 141.4 mg/dL. The TP (time 7 day) was 5.7 g/dL, the gamma-GTP (time 7 day) was 0.7 IU/L and the A/G (time 14 day) was 0.9. It also gave an ALP (time 14 day) of 1740 IU/L, an ALT (time 14 day) of 43.8 IU/L and an AST (time 14 day) of 79.2 IU/L. It also gave a BUN (time 14 day) of 18.4 mg/dL, a CRE (time 14 day) of 0.2 mg/dL and a Ca (time 14 day) of 10.5 mg/dL. For the same compound, the Cl (time 14 day) was 104.6 meq/L, the DBIL (time 14 day) was 0 mg/dL and the GLC (time 14 day) was 180.8 mg/dL. It also gave an IP (time 14 day) of 6.4 mg/dL, a K (time 14 day) of 4.3 meq/L and an LDH (time 14 day) of 285.4 IU/L. It also gave a Na (time 14 day) of 142.1 meq/L, a PL (time 14 day) of 153.6 mg/dL and an RALB (time 14 day) of 2.8 g/dL. The TBIL (time 14 day) was 0.002 mg/dL, the TC (time 14 day) was 83 mg/dL and the TG (time 14 day) was 135.3 mg/dL. The TP (time 14 day) was 5.7 g/dL, the gamma-GTP (time 14 day) was 0.7 IU/L and the A/G (time 28 day) was 0.9. It also gave an ALP (time 28 day) of 1250.4 IU/L, an ALT (time 28 day) of 48.6 IU/L and an AST (time 28 day) of 81 IU/L. For the same compound, the BUN (time 28 day) was 16.8 mg/dL, the CRE (time 28 day) was 0.2 mg/dL and the Ca (time 28 day) was 10.3 mg/dL. For the same compound, the Cl (time 28 day) was 103.7 meq/L, the DBIL (time 28 day) was 0.006 mg/dL and the GLC (time 28 day) was 197.2 mg/dL. The IP (time 28 day) was 5.2 mg/dL, the K (time 28 day) was 4 meq/L and the LDH (time 28 day) was 207 IU/L. The Na (time 28 day) was 142 meq/L, the PL (time 28 day) was 148.2 mg/dL and the RALB (time 28 day) was 2.8 g/dL. The TBIL (time 28 day) was 0.006 mg/dL, the TC (time 28 day) was 75.2 mg/dL and the TG (time 28 day) was 122 mg/dL. The TP (time 28 day) was 6.1 g/dL and the gamma-GTP (time 28 day) was 0.9 IU/L.
